The experiment deals with T1, heteromeric KV7.2/KV7.3 channels (KCNQ2, KCNQ3) (Homo sapiens, UniProt O43525+O43526).
T1 construct: expressed in transfected cells; host or cells: CHO-K1
Nature of the experiment: Automated patch-clamp (Sophion Qube 384) potency assay against KV7.2/KV7.3 channels. It is filed as cell-based. To be noted: CHO-K1/Kv7.2/Kv7.3 cells; for EC50: EC50 from concentration-response of shift in Vhalf, 10 concentrations up to 30 μM, read-out: Kv7.2/7.3 EC50; for Kv7.2/7.3 ΔV1/2: maximal shift in the Vhalf from the top of the curve. From the text:
Assessment of In Vitro Potency Against KV7.2/KV7.3 Channels
An automated patch-clamp assay on the Sophion Qube 384 was developed for potency testing to identify small molecule activators of heteromeric KV7.2/KV7.3 channels (KCNQ2, Uniprot ID 043526; KCNQ3, Uniprot 043525).
The cell line used was a stably transfected CHO-K1 cell line with constitutive KV7.2/KV7.3 expression.
CHO-K1/Kv7.2/Kv7.3 cells were maintained in the following culture media: • DMEM/F-12 with GlutaMAX™ (Gibco 31331-028), • 10% Fetal clone 2 serum (Perbio Science SH30066.03), • 1 mg/ml Geneticin™ selective antibiotic (G418, Invitrogen 1013027), and • 5 μg/ml BlasticidinS HCl (Invivogen Ant-bl-5).
On the day of the experiment, cells were resuspended in serum free media, counted and diluted to a final concentration of 3.5×10^6 cells per ml of media.
Cells were then placed onto the Sophion Qube 384 and rested for a minimum of 1 hour.
The following solutions were used for recording: • extracellular solution (in mM): 145 NaCl, 4 KCl, 1 MgCl2, 2 CaCl2), 10 HEPES, 10 glucose, pH 7.4, 315-320 mOsm. • intracellular solution (in mM): 120 KCl, 5.74 CaCl2), 1.75 MgCl2, 10 EGTA, 10 HEPES, 5 Na2ATP, pH 7.2, adjusted to 315 mOsm with sucrose.
After establishing the whole-cell configuration, cells were held at −80 mV throughout the experiment. A current-voltage (I-V) protocol stepping from −100 to +20 mV for 1 second was applied to measure Kv7.2/Kv7.3 currents, each step was followed by a 200 ms pulse to 0 mV to measure the tail currents. From the I-V protocol a Boltzmann fit was applied to generate activation curves. Data were sampled at 25 kHz and filtered at 5 kHz (Bessel). Data were produced using multihole QChips. The I-V protocol was applied several times to establish the response in control conditions (typically 0.3% DMSO) and in the presence of the test compound.
Data were reviewed in Sophion Analyser version 6.5.2 (Sophion Bioscience) for recording quality and filters were applied to remove any failed wells. Leak subtraction was applied to all recordings. Data filters for multihole QChips were typically: seal resistance>4 MΩ, capacitance >20 pF, baseline VHalf between 0 to −40 mV, baseline holding current between −2 to 2 nA, baseline steady state current at 20 mV >4 nA unless otherwise stated.
Analysis of Data for Assessment of Potency
10 concentrations of test compounds were applied to individual wells in quadruplicate to assess potency as a 1 in 3 dilution series from the maximal concentration of 30 μM. The average shift in the voltage for half activation (Vhalf) for each concentration was used to generate concentration-response curves fitted with a 4-parameter logistic model to estimate the EC50 from the point of inflection of the curve and the maximal shift in the Vhalf from the top of the curve.
The lower the EC50 value, the higher the potency of the analyzed compound. The selectivity criteria is assigned on the basis of the maximal shift in the Vhalf at 30 μM. […] In Table 3, ND means that selectivity was not determined.

Regarding `C[C@@H](Oc1cc(CNC(=O)N[C@@H]2CCOc3ccccc32)ncn1)C(F)(F)F` [Compound 205], the EC50 was 7090 nM and the “Kv7.2/7.3 ΔV1/2” value came out at 40.29 mV.

`O=C(NCc1ccnc(OCC(F)(F)F)c1)NCc1ccnc(OCC(F)(F)F)c1` [Compound 248]: the EC50 turned out to be 2610 nM and the “Kv7.2/7.3 ΔV1/2” value worked out at 23.91 mV.

On to `O=C(NCc1ccnc(OCC(F)(F)F)c1)N[C@@H]1CCOc2c(F)cccc21` [Compound 179], for which the EC50 came out at 2000 nM and the “Kv7.2/7.3 ΔV1/2” value is reported as 33.61 mV.

On to `C[C@@H](NC(=O)NCc1ccnc(OCC(F)(F)F)c1)c1cccc2c1OC(F)(F)O2` [Compound 227], for which the EC50 was determined as 1860 nM and the “Kv7.2/7.3 ΔV1/2” value is recorded as 31.71 mV.

In the case of `Cc1cccc2c1OCC[C@H]2NC(=O)NCc1ccnc(OCC(F)(F)F)c1` [Compound 184], the EC50 stood at 1230 nM and the “Kv7.2/7.3 ΔV1/2” value is on record as 42.17 mV.

On to `O=C(NCc1ccnc(OCC(F)(F)F)c1)N[C@H](C1CC1)C(F)(F)F` [Compound 213], for which the EC50 stood at 680 nM and the “Kv7.2/7.3 ΔV1/2” value is on record as 31.5 mV.

As for `O=C(NCc1ccnc(OCC(F)(F)F)c1)N[C@@H]1COc2cc(OC(F)(F)F)ccc21` [Compound 249], the EC50 was determined as 3420 nM and the “Kv7.2/7.3 ΔV1/2” value was 26.44 mV.

On to `COc1ccc([C@H](NC(=O)NCc2ccnc(OCC(F)(F)F)c2)C(F)(F)F)cc1` [Compound 233], for which the EC50 worked out at 2520 nM and the “Kv7.2/7.3 ΔV1/2” value stood at 28.00 mV.

With `O=C(NCc1ccnc(OCC(F)(F)F)c1)N[C@@H]1CCOc2cc(F)ccc21` [Compound 204], the EC50 is 980 nM and the “Kv7.2/7.3 ΔV1/2” value was 38.78 mV.

For the compound `O=C(NCc1ccc(OC(F)(F)F)cc1)NCc1ccnc(OCC(F)(F)F)c1` [Compound 211], the EC50 stood at 3130 nM and the “Kv7.2/7.3 ΔV1/2” value was 22.62 mV.

Turning to `O=C(NCc1ccnc(OCC(F)(F)F)c1)N[C@@H]1CCC[C@H]1c1ccc(F)cc1` [Compound 188], the EC50 was determined as 470 nM and the “Kv7.2/7.3 ΔV1/2” value amounted to 28.3 mV.

As to `O=C(NCc1ccnc(OCC(F)(F)F)c1)N[C@@H]1CCSc2ccccc21` [Compound 174], the EC50 is 1240 nM and the “Kv7.2/7.3 ΔV1/2” value was 47.65 mV.

Take `O=C(NCc1ccnc(OCC(F)(F)F)c1)N[C@@H]1CCO[C@H](c2ccc(F)cc2)C1` [Compound 245]: the EC50 was 2190 nM and the “Kv7.2/7.3 ΔV1/2” value worked out at 46.39 mV.

For the compound `O=C(NCc1ccnc(OCC(F)(F)F)c1)N[C@H]1COc2ccccc2C1` [Compound 187], the EC50 amounted to 2330 nM and the “Kv7.2/7.3 ΔV1/2” value was 21.99 mV.

`O=C(NCc1ccnc(OCC(F)(F)F)c1)N[C@@H]1C[C@@H]2CC[C@H]1O2` [Compound 237]: the EC50 was 11700 nM and the “Kv7.2/7.3 ΔV1/2” value was 29.76 mV.

Turning to `O=C(NCc1ccnc(OCC(F)(F)F)c1)N[C@@H](C1CC1)C(F)(F)F` [Compound 212], the EC50 is 1490 nM and the “Kv7.2/7.3 ΔV1/2” value stood at 41.94 mV.

Consider `COc1ccc([C@@H](C)NC(=O)NCc2ccnc(OCC(F)(F)F)c2)cc1` [Compound 210], for which the EC50 was 4540 nM and the “Kv7.2/7.3 ΔV1/2” value stood at 27.31 mV.

In the case of `Cn1ncc(C(F)(F)F)c1COc1cc(CNC(=O)NCCC2(C(F)(F)F)CC2)ccn1` [Compound 246], the EC50 came to 1760 nM and the “Kv7.2/7.3 ΔV1/2” value turned out to be 22.48 mV.

Turning to `O=C(NCc1ccnc(OCC(F)(F)F)c1)N[C@H]1CCOc2c(F)cccc21` [Compound 181], the EC50 is 700 nM and the “Kv7.2/7.3 ΔV1/2” value was 24.16 mV.

In the case of `C[C@@H](NC(=O)NCc1ccnc(OCC(F)(F)F)c1)c1ccc2c(c1)OC(F)(F)O2` [Compound 226], the EC50 stood at 1830 nM and the “Kv7.2/7.3 ΔV1/2” value came out at 22.4 mV.

Turning to `O=C(NCc1ccnc(OCC(F)(F)F)c1)N[C@@H]1CC[C@H](c2ccccc2)C1` [Compound 196], the EC50 was found to be 1540 nM and the “Kv7.2/7.3 ΔV1/2” value came to 56.75 mV.

As to `O=C(NCc1ccnc(OCC(F)(F)F)c1)NCC12CC(F)(C1)C2` [Compound 219], the EC50 was 2260 nM and the “Kv7.2/7.3 ΔV1/2” value was 35.95 mV.

Consider `O=C(NCc1ccnc(OCC(F)(F)F)c1)N[C@H]1CSc2ccccc2C1` [Compound 173], for which the EC50 worked out at 330 nM and the “Kv7.2/7.3 ΔV1/2” value was 31.15 mV.

As to `COc1ccc2c(c1)CCC[C@@H]2NC(=O)NCc1ccnc(OCC(F)(F)F)c1` [Compound 178], the EC50 is 8110 nM and the “Kv7.2/7.3 ΔV1/2” value is on record as 27.73 mV.

Turning to `C[C@@H](Oc1cc(CNC(=O)N[C@@H](C2CC2)C(F)(F)F)ncn1)C(F)(F)F` [Compound 223], the EC50 was 7400 nM and the “Kv7.2/7.3 ΔV1/2” value came to 41.12 mV.

For `O=C(NCc1ccnc(OCC(F)(F)F)c1)N[C@@H]1CCc2sccc21` [Compound 172], the EC50 came out at 1980 nM and the “Kv7.2/7.3 ΔV1/2” value was 55.13 mV.

`CC1(C)C[C@H](NC(=O)NCc2ccnc(OCC(F)(F)F)c2)c2ccccc2O1` [Compound 200]: the EC50 is 2510 nM and the “Kv7.2/7.3 ΔV1/2” value is 25.04 mV.

For the compound `CC1(C)C[C@H](NC(=O)NCc2ccnc(OCC(F)(F)F)c2)c2ccccc21` [Compound 193], the EC50 was determined as 520 nM and the “Kv7.2/7.3 ΔV1/2” value came out at 23.15 mV.

As for `COc1cccc(N2C[C@H](NC(=O)NCc3ccnc(OCC(F)(F)F)c3)C(F)(F)C2)c1` [Compound 241], the EC50 is 3320 nM and the “Kv7.2/7.3 ΔV1/2” value came to 36.71 mV.

On to `C[C@@H](Oc1cc(CNC(=O)N[C@H](C2CC2)C(F)(F)F)ncn1)C(F)(F)F` [Compound 224], for which the EC50 is 3430 nM and the “Kv7.2/7.3 ΔV1/2” value is recorded as 37.09 mV.

Consider `COc1ccc2c(c1)[C@H](NC(=O)NCc1ccnc(OCC(F)(F)F)c1)CCO2` [Compound 182], for which the EC50 was 1550 nM and the “Kv7.2/7.3 ΔV1/2” value came out at 37.46 mV.

Take `C[C@@H](Oc1cc(CNC(=O)N[C@@H]2COc3ccccc3C2)ncn1)C(F)(F)F` [Compound 221]: the EC50 worked out at 3200 nM and the “Kv7.2/7.3 ΔV1/2” value was determined as 35.15 mV.

Regarding `C[C@@H](Oc1cc(CNC(=O)N[C@@H]2COc3ccc(F)cc32)ncn1)C(F)(F)F` [Compound 208], the EC50 stood at 8150 nM and the “Kv7.2/7.3 ΔV1/2” value came out at 23.96 mV.

Regarding `CO[C@@H]1CCOc2c(NC(=O)NCc3ccnc(OCC(F)(F)F)c3)cccc21` [Compound 203], the EC50 is 2870 nM and the “Kv7.2/7.3 ΔV1/2” value was 20.92 mV.

Regarding `COc1ccc2c(c1)C[C@H](NC(=O)NCc1ccnc(OCC(F)(F)F)c1)CC2` [Compound 190], the EC50 amounted to 820 nM and the “Kv7.2/7.3 ΔV1/2” value stood at 20.58 mV.

In the case of `C[C@@H](Oc1cc(CNC(=O)N[C@@H]2CCOc3cc(F)ccc32)ncn1)C(F)(F)F` [Compound 225], the EC50 turned out to be 6410 nM and the “Kv7.2/7.3 ΔV1/2” value came to 42.13 mV.

`C[C@@H](Oc1cc(CNC(=O)N[C@@H]2CCOc3ccc(F)cc32)ncn1)C(F)(F)F` [Compound 206]: the EC50 was found to be 6780 nM and the “Kv7.2/7.3 ΔV1/2” value is recorded as 33.98 mV.

Take `CC1(C)C[C@@H](NC(=O)NCc2ccnc(OCC(F)(F)F)c2)c2ccccc21` [Compound 192]: the EC50 was 1690 nM and the “Kv7.2/7.3 ΔV1/2” value was found to be 47.09 mV.

As to `O=C(NCc1ccnc(OCC(F)(F)F)c1)N[C@@H]1COC[C@H]1Oc1ccc(F)cc1` [Compound 234], the EC50 was found to be 5260 nM and the “Kv7.2/7.3 ΔV1/2” value amounted to 27.37 mV.

For `O=C(NCc1ccnc(OCC(F)(F)F)c1)N[C@H]1CC[C@@H](c2ccccc2F)C1` [Compound 198], the EC50 came to 1370 nM and the “Kv7.2/7.3 ΔV1/2” value worked out at 76.04 mV.

With `O=C(NCc1ccnc(OCC(F)(F)F)c1)N[C@@H]1CCCc2c(F)cccc21` [Compound 216], the EC50 came out at 1400 nM and the “Kv7.2/7.3 ΔV1/2” value is 49.32 mV.

As for `COc1ccc2c(c1)CCC[C@H]2NC(=O)NCc1ccnc(OCC(F)(F)F)c1` [Compound 177], the EC50 was 2280 nM and the “Kv7.2/7.3 ΔV1/2” value is listed as 54.8 mV.
